Measured values taken from ChEMBL document CHEMBL1201862, “PubChem BioAssay data set” (2004).
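The compound was tested at five concentrations on cells cultured in 96-well plates, with a 48-hour exposure period. Here, GI50 denotes the concentration required for 50% inhibition of growth.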 Active and inactive are the calls of the source. Rule as the data show it: active = GI50 up to about 1.1 µM and inactive = higher.

Columns and labels:
Assay in all cases: NCI-60 cell line screen, 48 h
HT-29 = test system: HT-29
ACHN = test system: ACHN
CCRF-CEM = test system: CCRF-CEM
HCC 2998 = test system: HCC 2998
SF-539 = test system: SF-539
OVCAR-8 = test system: OVCAR-8
TK-10 = test system: TK-10
OVCAR-5 = test system: OVCAR-5
UACC-62 = test system: UACC-62
HCT-15 = test system: HCT-15
SW-620 = test system: SW-620
NCI-H460 = test system: NCI-H460
LOX IMVI = test system: LOX IMVI
HOP-62 = test system: HOP-62
UO-31 = test system: UO-31
NCI-H522 = test system: NCI-H522
UACC-257 = test system: UACC-257
MDA-MB-435 = test system: MDA-MB-435
MDA-MB-231 = test system: MDA-MB-231

Structure (SMILES)	GI50 (HT-29)	GI50 (ACHN)	GI50 (CCRF-CEM)	GI50 (HCC 2998)	GI50 (SF-539)	GI50 (OVCAR-8)	GI50 (TK-10)	GI50 (OVCAR-5)	GI50 (UACC-62)	GI50 (HCT-15)	GI50 (SW-620)	GI50 (NCI-H460)	GI50 (LOX IMVI)	GI50 (HOP-62)	GI50 (UO-31)	GI50 (NCI-H522)	GI50 (UACC-257)	GI50 (MDA-MB-435)	GI50 (MDA-MB-231)
CC(=O)Nc1ccccc1Sc1ccccc1	> 100 µM (inactive)	> 100 µM (inactive)	> 100 µM (inactive)	> 100 µM (inactive)	> 100 µM (inactive)	> 100 µM (inactive)	> 100 µM (inactive)	> 100 µM (inactive)	> 100 µM (inactive)	> 100 µM	> 100 µM (inactive)	> 100 µM (inactive)	> 100 µM (inactive)	> 100 µM (inactive)	28.6 µM (inactive)	36.6 µM (inactive)	> 100 µM (inactive)	–	–
[N-]=[N+]=Nc1ncnc2c1sc(=S)n2-c1ccccc1	> 100 µM (inactive)	> 100 µM (inactive)	> 100 µM (inactive)	> 100 µM (inactive)	> 100 µM (inactive)	> 100 µM (inactive)	> 100 µM (inactive)	> 100 µM (inactive)	> 100 µM (inactive)	> 100 µM	> 100 µM (inactive)	> 100 µM (inactive)	> 100 µM (inactive)	21.6 µM (inactive)	> 100 µM (inactive)	> 100 µM (inactive)	> 100 µM (inactive)	–	–
COC1(C)CNCC(C)(C)NC(=O)C(C)(OC)CNCC(C)(C)NC1=O (stereo not given)	> 100 µM (inactive)	> 100 µM (inactive)	> 100 µM (inactive)	> 100 µM (inactive)	> 100 µM (inactive)	> 100 µM (inactive)	> 100 µM (inactive)	> 100 µM (inactive)	> 100 µM (inactive)	> 100 µM	49.4 µM (inactive)	> 100 µM (inactive)	> 100 µM (inactive)	> 100 µM (inactive)	> 100 µM (inactive)	> 100 µM (inactive)	> 100 µM (inactive)	–	–
CC1=NN(C(=O)c2ccc(Cl)cc2)C(=O)/C1=C/c1c(O)cc(O)c2ccccc12	> 100 µM (inactive)	> 100 µM (inactive)	> 100 µM (inactive)	> 100 µM (inactive)	> 100 µM (inactive)	> 100 µM (inactive)	> 100 µM (inactive)	> 100 µM (inactive)	> 100 µM (inactive)	–	> 100 µM (inactive)	> 100 µM (inactive)	> 100 µM (inactive)	> 100 µM (inactive)	> 100 µM (inactive)	> 100 µM (inactive)	> 100 µM (inactive)	–	–
Cc1ccc(NC(=O)CCc2n[nH]c(=S)o2)cc1	> 100 µM (inactive)	> 100 µM (inactive)	62.8 µM (inactive)	> 100 µM (inactive)	> 100 µM (inactive)	> 100 µM (inactive)	> 100 µM (inactive)	> 100 µM (inactive)	> 86.3 µM (inactive)	> 100 µM	> 100 µM (inactive)	> 100 µM (inactive)	> 100 µM (inactive)	> 100 µM (inactive)	> 100 µM (inactive)	> 100 µM (inactive)	> 100 µM (inactive)	–	–
CN(C=O)/C=C/c1cc(O)ccc1O	32.6 µM (inactive)	16.1 µM (inactive)	18.7 µM (inactive)	> 63 µM (inactive)	38.3 µM (inactive)	30.3 µM (inactive)	26.8 µM (inactive)	40.6 µM (inactive)	31.3 µM (inactive)	36.6 µM	12.8 µM (inactive)	> 60.7 µM (inactive)	23.2 µM (inactive)	> 43 µM (inactive)	32 µM (inactive)	4.17 µM (inactive)	30.3 µM (inactive)	–	–
COC(CC1(OC)OC(=O)C=C1N)OC (stereo not given)	> 100 µM (inactive)	> 100 µM (inactive)	> 100 µM (inactive)	> 100 µM (inactive)	> 100 µM (inactive)	> 100 µM (inactive)	> 100 µM (inactive)	> 100 µM (inactive)	> 100 µM (inactive)	> 100 µM	> 100 µM (inactive)	> 100 µM (inactive)	> 100 µM (inactive)	> 100 µM (inactive)	> 100 µM (inactive)	> 100 µM (inactive)	> 100 µM (inactive)	–	–
C=C1C(=O)OC2/C=C(/C)C3CC(O)C(C)(CC(OC(=O)/C(C)=C/C)C12)O3 (stereo not given)	3.76 µM (inactive)	2.49 µM (inactive)	0.508 µM (active)	13.2 µM (inactive)	2.14 µM (inactive)	1.83 µM (inactive)	8.24 µM (inactive)	8.61 µM (inactive)	2.03 µM (inactive)	1.76 µM	1.65 µM (inactive)	6.18 µM (inactive)	1.76 µM (inactive)	25.1 µM (inactive)	5.86 µM (inactive)	1.6 µM (inactive)	4.25 µM (inactive)	–	–
CC(C)(C)OC(=O)N(CCCCNC(=O)c1ccccc1)CCCNC(=O)c1ccccc1	> 100 µM (inactive)	> 100 µM (inactive)	72.1 µM (inactive)	> 100 µM (inactive)	> 100 µM (inactive)	> 100 µM (inactive)	> 100 µM (inactive)	> 100 µM (inactive)	> 100 µM (inactive)	> 100 µM	> 100 µM (inactive)	> 100 µM (inactive)	–	> 100 µM (inactive)	90.6 µM (inactive)	> 100 µM (inactive)	> 100 µM (inactive)	> 100 µM (inactive)	> 100 µM (inactive)
O=C(Nc1nc2ccccc2n1Cc1ccccc1)NC12CC3CC(CC(C3)C1)C2	> 100 µM (inactive)	44.7 µM (inactive)	> 100 µM (inactive)	> 100 µM (inactive)	36 µM (inactive)	> 100 µM (inactive)	65.5 µM (inactive)	> 100 µM (inactive)	41.9 µM (inactive)	> 100 µM	> 100 µM (inactive)	41 µM (inactive)	40.3 µM (inactive)	32.6 µM (inactive)	> 100 µM (inactive)	44.7 µM (inactive)	> 100 µM (inactive)	–	–
CC(=O)CC(=O)CCC(=O)Nc1cccc(C(F)(F)F)c1	> 100 µM (inactive)	> 100 µM (inactive)	> 100 µM (inactive)	> 100 µM (inactive)	> 100 µM (inactive)	> 100 µM (inactive)	> 100 µM (inactive)	> 100 µM (inactive)	> 100 µM (inactive)	> 100 µM	> 100 µM (inactive)	> 100 µM (inactive)	> 100 µM (inactive)	> 100 µM (inactive)	> 100 µM (inactive)	> 100 µM (inactive)	> 100 µM (inactive)	–	–
COC(=O)c1cccc2cccc(C(=O)Nc3ccc(C)cc3C)c12	91 µM (inactive)	67.1 µM (inactive)	3.72 µM (inactive)	> 100 µM (inactive)	96.4 µM (inactive)	> 100 µM (inactive)	> 100 µM (inactive)	> 100 µM (inactive)	> 100 µM (inactive)	> 100 µM	> 100 µM (inactive)	> 100 µM (inactive)	> 100 µM (inactive)	> 100 µM (inactive)	> 100 µM (inactive)	70.1 µM (inactive)	> 100 µM (inactive)	–	–
CC(=O)c1ccc(NC(=O)C(=O)C(C(=O)/C=C/c2ccccc2)C2OC(=O)c3ccccc32)cc1 (stereo not given)	> 100 µM (inactive)	> 100 µM (inactive)	53.5 µM (inactive)	> 100 µM (inactive)	> 100 µM (inactive)	> 100 µM (inactive)	> 100 µM (inactive)	> 100 µM (inactive)	> 100 µM (inactive)	> 100 µM	> 100 µM (inactive)	> 100 µM (inactive)	> 100 µM (inactive)	> 100 µM (inactive)	> 100 µM (inactive)	> 100 µM (inactive)	> 100 µM (inactive)	–	–
N#C/C(=C/c1cccc2ccccc12)C(=O)c1ccccc1	> 100 µM (inactive)	> 10 µM (inactive)	16.6 µM (inactive)	23.6 µM (inactive)	17.7 µM (inactive)	33 µM (inactive)	35.4 µM (inactive)	23.6 µM (inactive)	18.3 µM (inactive)	19 µM	16.8 µM (inactive)	27.5 µM (inactive)	19.5 µM (inactive)	18.3 µM (inactive)	18.4 µM (inactive)	21.5 µM (inactive)	> 10 µM (inactive)	–	–
O=C(c1ccccc1)N1C2C3CC(OCc4ccccc4)(OCc4ccccc4)C(O3)C21 (stereo not given)	–	> 100 µM (inactive)	> 100 µM (inactive)	> 100 µM (inactive)	> 100 µM (inactive)	> 100 µM (inactive)	> 100 µM (inactive)	> 100 µM (inactive)	> 100 µM (inactive)	> 100 µM	> 100 µM (inactive)	> 100 µM (inactive)	> 100 µM (inactive)	> 100 µM (inactive)	> 100 µM (inactive)	> 100 µM (inactive)	–	–	–
CCCCCCC(O)C/C=C/CCCCCC/C(C(=O)OC)=C(/O)C(=O)OCC (stereo not given)	> 100 µM (inactive)	> 100 µM (inactive)	> 100 µM (inactive)	> 100 µM (inactive)	> 100 µM (inactive)	> 100 µM (inactive)	> 100 µM (inactive)	> 100 µM (inactive)	> 100 µM (inactive)	> 100 µM	> 100 µM (inactive)	> 100 µM (inactive)	> 100 µM (inactive)	> 100 µM (inactive)	> 100 µM (inactive)	85.1 µM (inactive)	> 100 µM (inactive)	–	–
